Experimental findings from EPA's ToxRefDB 2 are described below.

As a reminder, the LOAEL is the lowest tested level that showed an adverse finding. A word on the NOAEL: it is the highest tested level that showed no adverse finding.

Data set [1] deals with rat. As to conditions: Carcinogenicity, fischer, Oral, Feed, dose end: 105 week, group: systemic.
In data set [2] the test system is rat. The settings on record: Subchronic oral toxicity in rodents, Fischer, Feed, dose end: 13 week, group: systemic.
Data set [3] concerns mouse. The settings on record: Multigenerational reproductive toxicity study, b6c3f1, Oral, Feed, dose end: 2 generation.
The subject of data set [4] is mouse. As to conditions: Subchronic oral toxicity in rodents, b6c3f1, Feed, dose end: 13 week, group: systemic.
Data set [5] has as its system rat. As to conditions: Subchronic oral toxicity in rodents, fischer, Feed, dose end: 13 week, group: systemic.
Data set [6] has as its system mouse. The settings on record: Carcinogenicity, b6c3f1, Oral, Feed, dose end: 2 year, group: systemic.
The subject of data set [7] is rat. As to conditions: Combined chronic toxicity/carcinogenicity, fischer, Oral, Feed, dose end: 2 year, group: systemic.
Data set [8] relates to rat. The settings on record: Carcinogenicity; fischer; Oral; Feed; dose end: 2 year; group: systemic; systemic / in life observation / body weight / body weight.
The subject of data set [9] is dog. As to conditions: Chronic toxicity; beagle; Oral; Capsule; dose end: 12 month; group: systemic; systemic / clinical chemistry / urea nitrogen / urea + systemic / in life observation / clinical signs / altered breathing rate + systemic….
Data set [10] has as its system mouse. The settings on record: Carcinogenicity, swiss albino, Oral, Feed, dose end: 18 month, group: systemic.
Data set [11] concerns mouse. As to conditions: Carcinogenicity, cd1, Oral, Feed, dose end: 18 month, group: systemic.
In data set [12] the test system is rat. The settings on record: Prenatal developmental toxicity study; sprague dawley; Oral; Gavage/Intubation; dose end: 7 GD; group: maternal; reproductive / reproductive performance / estrous cycle / corpora lutea + reproductive / reproductive performance / postimplantation loss / ….
Data set [13] deals with rat. As to conditions: Sub-acute repeat dose toxicity, sprague dawley, Oral, Gavage/Intubation, dose end: 28 day, group: systemic.
The test system of data set [14] is rat. As to conditions: Developmental neurotoxicity study; sprague dawley; Injection; Subcutaneous; dose end: 345 PND; group: cannot be grouped; systemic / in life observation / body weight / offspring (pup) weight + systemic / in life observation / clinical signs / abnormal movements….
In data set [15] the test system is rat. As to conditions: Subchronic oral toxicity in rodents, other, Gavage/Intubation, dose end: 90 day, group: systemic.
In data set [16] the test system is rat. As to conditions: Subchronic oral toxicity in rodents, fischer, Feed, dose end: 45 day, group: systemic.
In data set [17] the test system is rat. The settings on record: Carcinogenicity; fischer; Oral; Feed; dose end: 2 year; group: systemic; systemic / in life observation / body weight / body weight. The source holds these as a separate data set.
The test system of data set [18] is mouse. The settings on record: Carcinogenicity; b6c3f1; Oral; Feed; dose end: 2 year; group: systemic; systemic / in life observation / body weight / body weight.
The test system of data set [19] is mouse. The settings on record: Subchronic oral toxicity in rodents, b6c3f1, Feed, dose end: 45 day, group: systemic, systemic / in life observation / mortality / mortality.
Setting [20] is: systemic / pathology microscopic / kidney / hyperplasia + systemic / pathology microscopic / pancreas / hyperplasia.
Setting [21] is: systemic / pathology microscopic / kidney / hyperplasia + systemic / pathology microscopic / pancreas / hyperplasia + systemic / pathology ….
Setting [22] is: systemic / clinical chemistry / creatinine / creatinine + systemic / urinalysis / specific gravity/osmolality / specific gravity/osmolality….
The mark [23] stands for this setting: systemic / in life observation / body weight / body weight gain + systemic / in life observation / body weight / body weight + systemic / ….
[24] abbreviates: group: offspring, systemic / in life observation / body weight / offspring (pup) weight.
The mark [25] stands for this setting: group: parental, systemic / in life observation / body weight / body weight + systemic / in life observation / food consumption / food consumption + systemic….
The mark [26] stands for this setting: group: parental, systemic / in life observation / body weight / body weight + systemic / organ weight / kidney / relative to body weight + systemic / in life….
[27] abbreviates: group: reproductive, reproductive / reproductive performance / reproductive performance other / NOS + reproductive / reproductive performance / estrous cycle / ….
[28] abbreviates: systemic / in life observation / body weight / body weight + systemic / in life observation / body weight / body weight gain.
[29] abbreviates: systemic / pathology microscopic / kidney / hyaline droplet.
[30] abbreviates: systemic / in life observation / body weight / body weight + systemic / pathology microscopic / lung / hyperplasia.
The mark [31] stands for this setting: systemic / pathology microscopic / lung / adenoma/carcinoma combined.
Setting [32] is: systemic / pathology microscopic / kidney / hyperplasia + systemic / pathology microscopic / kidney / pigmentation.
Setting [33] is: systemic / pathology microscopic / kidney / hyperplasia + systemic / pathology microscopic / kidney / pigmentation + systemic / pathology ….
Setting [34] is: systemic / organ weight / kidney / absolute + systemic / organ weight / kidney / relative to body weight + systemic / organ weight / liver….
Setting [35] is: systemic / pathology microscopic / liver / adenoma + systemic / pathology microscopic / liver / adenoma/carcinoma combined + systemic / ….
The mark [36] stands for this setting: systemic / pathology microscopic / liver / adenoma/carcinoma combined + systemic / hematology / erythrocyte (rbc) count differential / ….
The mark [37] stands for this setting: systemic / organ weight / heart / nos + systemic / organ weight / thymus / nos + systemic / pathology microscopic / ovary / follicle count.
[38] abbreviates: systemic / clinical chemistry / 5' nucleotidase / 5' nucleotidase + systemic / clinical chemistry / protein / protein + systemic / in life ….
Where [39] appears, read: systemic / clinical chemistry / 5' nucleotidase / 5' nucleotidase + systemic / organ weight / liver / relative to body weight + systemic / ….
Where [40] appears, read: systemic / in life observation / body weight / body weight.
Setting [41] is: systemic / in life observation / body weight / body weight + systemic / in life observation / mortality / mortality.

Molecules are shown by their SMILES. A value given as a limit tells only on which side of the number the result lay.

On to `OCC(CO)(CCBr)CCBr` [2,2-Bis(bromoethyl)-1,3-propanediol], for which, in [1] (setting [20]), the lowest-observed-adverse-effect level (LOAEL) is 100 mg/kg/day and the NOAEL was below 100 mg/kg/day. In addition, in data set [1] (setting [21]), the LEL came to 100 mg/kg/day and the NEL was below 100 mg/kg/day. In addition, in data set [2] (setting [22]), the LEL was determined as 100 mg/kg/day and the NEL is below 100 mg/kg/day. Also, in data set [2] (setting [23]), the LOAEL worked out at 400 mg/kg/day and the no observed adverse effect level (NOAEL) was 200 mg/kg/day.

As for `O=C(O)c1ccc([N+](=O)[O-])cc1` [4-Nitrobenzoic acid], the LEL stood at 500 mg/kg/day in [3] (setting [24]); 500 mg/kg/day in data set [3] (setting [25]); 1100 mg/kg/day in data set [3] (group: reproductive, reproductive / reproductive performance / reproductive performance other / NOS + reproductive / reproductive performance / gestational …); 170 mg/kg/day in [4] (setting [28]); 40 mg/kg/day in data set [5] (setting [29]); 170 mg/kg/day in data set [6] (setting [31]). Besides, the LEL in [7] (setting [32]) came out at 50 mg/kg/day. The lowest-observed-adverse-effect level (LOAEL) is above 2400 mg/kg/day in [3] (setting [24]); above 2400 mg/kg/day in data set [3] (setting [26]); above 2400 mg/kg/day in data set [3] (setting [27]); 670 mg/kg/day in data set [4] (setting [28]); 310 mg/kg/day in data set [5] (systemic / in life observation / body weight / body weight gain + systemic / organ weight / spleen / relative to body weight + systemic / …); above 675 mg/kg/day in data set [6] (setting [30]). Besides, the LOAEL in [7] (setting [33]) worked out at 100 mg/kg/day. For the same compound, the NEL in data set [3] (setting [24]) is below 500 mg/kg/day; in [3] (setting [25]), below 500 mg/kg/day; in data set [3] (setting [27]) it was 500 mg/kg/day; in [4] (setting [28]), below 170 mg/kg/day; in [5] (setting [29]), below 40 mg/kg/day; in data set [6] (setting [31]), below 170 mg/kg/day. The NEL in data set [7] (setting [32]) is below 50 mg/kg/day. Also, the NOAEL in [3] (setting [24]) is at least 2400 mg/kg/day; in data set [3] (setting [26]), at least 2400 mg/kg/day; in data set [3] (setting [27]), at least 2400 mg/kg/day; in data set [4] (systemic / in life observation / body weight / body weight + systemic / in life observation / body weight / body weight gain + systemic / …), 330 mg/kg/day; in [5] (systemic / pathology microscopic / kidney / hyaline droplet + systemic / in life observation / body weight / body weight gain + systemic / …), 160 mg/kg/day; in [6] (setting [30]), at least 675 mg/kg/day. Moreover, the NOAEL in data set [7] (setting [33]) amounted to 50 mg/kg/day.

Turning to `Cc1ccc2ncccc2c1` [6-Methylquinoline], in data set [8], the LEL is 25 mg/kg/day, the LOAEL was above 25 mg/kg/day, the NEL is below 25 mg/kg/day and the NOAEL was at least 25 mg/kg/day.

For the compound `N#Cc1cc(Br)c(O)c(Br)c1` [Bromoxynil], the LEL in data set [9] stood at 1.5 mg/kg/day; in [10] (systemic / pathology microscopic / liver / carcinoma + systemic / pathology microscopic / liver / hyperplasia), 4 mg/kg/day; in [11] (setting [36]), 3.1 mg/kg/day. The LOAEL in [9] was 1.5 mg/kg/day; in data set [10] (setting [34]), above 13.3 mg/kg/day; in [11] (setting [35]) it was 12 mg/kg/day. In addition, the NEL in data set [9] is 0.3 mg/kg/day; in [10] (systemic / pathology microscopic / liver / adenoma + systemic / pathology microscopic / liver / carcinoma + systemic / organ weight / liver…), 1.33 mg/kg/day; in data set [11] (setting [36]), below 3.1 mg/kg/day. The no-observed-adverse-effect level (NOAEL) in data set [9] is 0.3 mg/kg/day; in [10] (setting [34]) it was at least 13.3 mg/kg/day; in data set [11] (setting [35]), 3.1 mg/kg/day.

Take `CS(=O)(=O)OCCCCOS(C)(=O)=O` [Busulfan]: in [12], the LEL came out at 1.5 mg/kg/day, the LOAEL is above 1.5 mg/kg/day, the NEL was found to be 0.5 mg/kg/day and the NOAEL is at least 1.5 mg/kg/day. Further, in data set [13] (setting [37]), the LOAEL was above 1.5 mg/kg/day, the NEL came to 0.1 mg/kg/day and the no-observed-adverse-effect level (NOAEL) was at least 1.5 mg/kg/day. In data set [13] (systemic / pathology microscopic / ovary / follicle count), this compound showed an LEL of 0.5 mg/kg/day.

Consider `C[C@@H]1C[C@H]2[C@@H]3CCC4=CC(=O)C=C[C@]4(C)[C@@]3(F)[C@@H](O)C[C@]2(C)[C@@]1(O)C(=O)CO` [Dexamethasone], for which, in data set [14], the LEL stood at 3 mg/kg/day, the LOAEL was above 3 mg/kg/day, the NEL was below 3 mg/kg/day and the NOAEL is at least 3 mg/kg/day.

On to `N#CC(Cl)Cl` [Dichloroacetonitrile], for which, in data set [15] (setting [38]), the LOAEL is above 65 mg/kg/day and the NOAEL was at least 65 mg/kg/day. Moreover, in [15] (setting [39]), the LEL is 8 mg/kg/day and the NEL was below 8 mg/kg/day.

For the compound `Cc1ccc(S(=O)(=O)NC(=O)NN2CCCCCC2)cc1` [Tolazamide], the LEL in [16] (setting [40]) was found to be 1000 mg/kg/day; in data set [17] it was 250 mg/kg/day; in data set [18] it was 750 mg/kg/day; in data set [19], 3750 mg/kg/day. Further, the LOAEL in data set [16] (setting [40]) is 1000 mg/kg/day; in [17], above 500 mg/kg/day; in data set [18], 750 mg/kg/day; in data set [19], above 7500 mg/kg/day. The NEL in data set [16] (setting [41]) was 500 mg/kg/day; in data set [17], below 250 mg/kg/day; in data set [18] it was below 750 mg/kg/day; in [19] it was 1800 mg/kg/day. For the same compound, the no-observed-adverse-effect level (NOAEL) in data set [16] (setting [41]) is 500 mg/kg/day; in data set [17], at least 500 mg/kg/day; in data set [18] it was below 750 mg/kg/day; in data set [19] it was at least 7500 mg/kg/day.
